# According to US20260091082A1, “CYCLIC PEPTIDE DERIVATIVE COMPOSITION FOR TREATING OR PREVENTING EYE DISEASE” (DKS Co. Ltd., priority 2022, published 2026):
# Several values for one entry are separate records, joined by “and”; a condition that tells them apart may be missing. Equal entries are not always repeated.
# System: anterior chamber aqueous humor pressure load rat model
# Assay: Retinal thickness (IPL, INL, ONL) in retinal damage model induced by anterior chamber aqueous humor pressure load
# Format: in vivo, Rat; Slc: SD
# Settings: for Thickness of INL (μm) / Thickness of IPL (μm) / Thickness of ONL (μm): 10 mg/mL intravenous (1 mL/kg once) about 30 minutes before ischemic load (test group 4), 14 days after model creation, mean ± S.E., 10 animals
# Protocol: • Name: Compound 9 • Source: Synthesized in the above Examples • Used amount: 0.4 mL (50 mg/mL solution) • Storage conditions: Freezing, light shielding
# Method for preparing test substance (1 mg/mL): A high concentration solution prepared at 50 mg/mL was diluted 50 times with a medium to prepare a 1 mg/mL administration solution.
# • Name: MK-801 • Distributor: SIGMA-ALDRICH • Use amount: 0.0501 g • Storage condition: refrigerated (2° C. to 8° C.)
# Method for preparing positive control substance (10 mg/mL): 0.0501 g was weighed out and made up to a total volume of 5 mL with a control substance (physiological saline).
# • Species and strains: Rat; Slc: SD • Number of animals on arrival and sex: 50 males • Age in weeks at arrival: 6 weeks old • Body weight range at arrival: 147.2 to 170.0 g • Source: Japan SLC, Inc.
# Grouping was performed two days before the first creation of the retinal damage model induced by an anterior chamber aqueous humor pressure load. Using the daily body weight as an index, stratified random allocation was performed using SAS (Ver. 9.3, SAS Institute Japan Ltd.) and EXSUS (Ver. 8.0, CAC Croit Corporation) so that an average value of the body weights of each group was approximately uniform.
# • Administration route: Eyedrop administration, intravenous administration • Administration method (eyedrop): Eyedrop administration was performed on a treated eye (right eye) of a rat using a micropipette 4 times a day (at intervals of 1.5 hours or more). • Administration method (intravenous): The amount of administration solution, calculated from the body weight on the day of administration, was administered from the tail vein using a syringe and an injection needle about 30 minutes before ischemic load. • Time of administration: Administration was performed according to the following schedule.
# 1. 10 mg/kg xylazine hydrochloride was intramuscularly administered on the model creation day (day 0). A rat was placed in an anesthesia box and subjected to general anesthesia with isoflurane (5%, oxygen:nitrous oxide=1:3). When anesthesia was effective, the rat was taken out of the anesthesia box, an inhalation anesthetic mask was worn, and anesthesia was maintained with isoflurane (1% to 5%, oxygen nitrous oxide=1:3).
# 2. The body temperature was maintained at 37° C. with a warming mat, and a mydrin P ophthalmic solution was instilled in the right eye (treated eye) of the rat to dilate the pupil, then the cravit ophthalmic solution 1.5% (Santen Pharmaceutical Co., Ltd.) was instilled.
# 3. A bottle of an IV bag containing physiological saline was previously suspended so that a water surface was 155 cm (100 mmHg or more) higher than the eye of the rat. The IV bag was connected to a pediatric infusion set (Terumo Corporation), a 27 G injection needle thereof was inserted into and fixed to the anterior chamber while slightly dripping the liquid from a needle tip. The model was created in the light phase (6:00 to 18:00) in consideration of the diurnal variation of the intraocular pressure.
# 4. After the needle was inserted into the anterior chamber, pressure (100 mmHg or more) was loaded and maintained in the anterior chamber by associating the reflux system.
# 5. After an ischemic load for 45 minutes, the injection needle and the like were removed, the inhalation anesthetic mask was removed, and the rat was sufficiently woken up under a warming mat, and then returned to the cage.
# 6. For 2 days after surgery, 10 mg/kg xylazine hydrochloride was intramuscularly administered as an analgesic for the purpose of alleviating the pain after the treatment.
# 1. Fourteen days after model creation, general anesthesia was performed with isoflurane (5%, oxygen:nitrous oxide=1:3), euthanasia was then performed by exsanguination, a suture was placed as a marker at the 12 o'clock position of the ocular conjunctiva, and eyeball enucleation was performed.
# 2. […]
# [1] = 10 mg/mL intravenous, right eye, 600 μm from optic disk, mean per animal
# [2] = 10 mg/mL intravenous, right eye, 900 μm from optic disk, individual measurements per animal
# [3] = 10 mg/mL intravenous, right eye, 900 μm from optic disk, mean per animal
# [4] = MK-801, 10 mg/mL intravenous, right eye, individual animals 401-410
# [5] = test group 4 (positive control, intravenous)
compound,measurement,setting,value
"C[C@]12N[C@H](Cc3ccccc31)c1ccccc12 [MK-801, reference compound]","Thickness of IPL (μm), Distance from Optic Disk 600 μm","10 mg/mL intravenous, right eye, 600 μm from optic disk, individual measurements per animal",51.638 μm and 52.865 μm and 43.668 μm and 44.847 μm and 43.645 μm and 46.040 μm and 48.131 μm and 48.555 μm and 40.323 μm and 42.059 μm and 40.708 μm and 38.245 μm and 23.016 μm and 30.373 μm and 47.349 μm and 49.055 μm and 51.482 μm and 47.356 μm and 46.081 μm and 48.016 μm and 49.876 μm and 42.369 μm and 44.364 μm and 47.408 μm and 44.018 μm and 42.681 μm and 28.572 μm and 45.620 μm and 44.033 μm and 47.914 μm
same,"Thickness of INL (μm), Distance from Optic Disk 600 μm, Mean",[1],37.378 μm and 28.006 μm and 30.469 μm and 44.484 μm and 31.392 μm and 28.027 μm and 18.807 μm and 31.969 μm and 25.534 μm and 35.604 μm
same,"Thickness of IPL (μm), Distance from Optic Disk 600 μm, Mean",[1],51.460 μm and 43.628 μm and 44.683 μm and 48.031 μm and 42.133 μm and 40.545 μm and 27.320 μm and 47.341 μm and 47.624 μm and 47.337 μm
same,"Thickness of INL (μm), Distance from Optic Disk 900 μm",[2],38.448 μm and 33.242 μm and 40.306 μm and 28.655 μm and 32.584 μm and 30.110 μm and 27.670 μm and 26.653 μm and 27.205 μm and 46.278 μm and 47.196 μm and 49.419 μm and 26.256 μm and 28.272 μm and 28.572 μm and 28.638 μm and 29.653 μm and 28.909 μm and 18.887 μm and 19.638 μm and 20.068 μm and 28.079 μm and 29.083 μm and 31.101 μm and 27.776 μm and 27.037 μm and 27.422 μm and 33.221 μm and 42.252 μm and 40.931 μm
same,"Thickness of IPL (μm), Distance from Optic Disk 900 μm",[2],53.305 μm and 54.992 μm and 50.505 μm and 49.780 μm and 48.950 μm and 49.327 μm and 45.307 μm and 46.968 μm and 47.454 μm and 59.185 μm and 57.507 μm and 59.952 μm and 47.370 μm and 46.144 μm and 43.062 μm and 44.289 μm and 45.534 μm and 44.647 μm and 26.506 μm and 30.220 μm and 35.348 μm and 47.148 μm and 37.774 μm and 39.021 μm and 47.795 μm and 46.694 μm and 44.145 μm and 52.722 μm and 49.687 μm and 46.942 μm
same,"Thickness of INL (μm), Distance from Optic Disk 900 μm, Mean",[3],37.332 μm and 30.450 μm and 27.176 μm and 47.631 μm and 27.700 μm and 29.067 μm and 19.531 μm and 29.421 μm and 27.412 μm and 38.801 μm
same,"Thickness of IPL (μm), Distance from Optic Disk 900 μm, Mean",[3],52.934 μm and 49.352 μm and 46.576 μm and 58.881 μm and 45.525 μm and 44.823 μm and 30.691 μm and 41.314 μm and 46.211 μm and 49.784 μm
same,Thickness of INL (μm),300 μm from optic disk,28.96±1.66 μm
same,Thickness of IPL (μm),300 μm from optic disk,38.05±1.38 μm
same,Thickness of ONL (μm),300 μm from optic disk,42.08±1.66 μm
same,Thickness of INL (μm),600 μm from optic disk,31.17±2.21 μm
same,Thickness of IPL (μm),600 μm from optic disk,44.01±2.11 μm
same,Thickness of ONL (μm),600 μm from optic disk,45.28±1.75 μm
same,Thickness of INL (μm),900 μm from optic disk,31.45±2.48 μm
same,Thickness of IPL (μm),900 μm from optic disk,46.61±2.34 μm
same,Thickness of ONL (μm),900 μm from optic disk,45.02±1.52 μm
same,"Thickness of ONL, distance from optic disk 300 μm (single measurement)",[4],49.987 μm and 47.894 μm and 44.120 μm and 44.371 μm and 45.163 μm and 41.953 μm (2×) and 41.468 μm and 43.326 μm and 44.787 μm and 50.806 μm and 50.609 μm and 36.032 μm and 35.996 μm and 37.658 μm and 33.339 μm and 36.442 μm and 39.921 μm and 32.751 μm and 35.889 μm and 35.090 μm and 45.922 μm and 43.490 μm and 44.532 μm and 39.787 μm and 38.794 μm and 36.469 μm and 48.975 μm and 47.935 μm and 47.053 μm
same,"Thickness of ONL, distance from optic disk 600 μm (single measurement)",[4],54.862 μm and 55.200 μm and 39.132 μm and 42.030 μm and 46.694 μm and 48.910 μm and 53.036 μm and 51.036 μm and 37.502 μm and 37.761 μm and 41.216 μm and 41.515 μm and 39.682 μm and 37.237 μm and 46.859 μm and 44.945 μm and 44.217 μm and 44.145 μm and 50.162 μm and 48.259 μm and 48.902 μm and 41.131 μm and 49.194 μm and 53.714 μm and 39.721 μm and 42.784 μm and 37.125 μm and 46.818 μm and 44.498 μm and 50.125 μm
same,"Thickness of ONL, distance from optic disk 900 μm (single measurement)",[4],50.646 μm and 51.429 μm and 55.123 μm and 43.100 μm and 44.611 μm and 41.813 μm and 43.865 μm and 45.150 μm and 42.936 μm and 50.620 μm and 52.065 μm and 51.575 μm and 38.927 μm and 44.018 μm and 42.314 μm and 45.648 μm and 44.179 μm and 43.513 μm and 35.404 μm and 34.065 μm and 37.439 μm and 46.755 μm and 42.208 μm and 44.217 μm and 44.685 μm and 43.759 μm and 46.364 μm and 47.690 μm and 47.148 μm and 49.406 μm
same,"Inner nuclear layer (INL) thickness compared with the control group, in words",[5],no obvious change was observed
same,"Outer nuclear layer (ONL) thickness compared with the control group, in words",[5],statistically significant differences were observed at measurement sites between 600 to 900 μm from the optic disk
same,"Inner plexiform layer (IPL) thickness compared with the control group, in words","test group 4 (positive control, intravenous), 300 to 900 μm from the optic disk",statistically significant suppression of retinal damage was shown at all measurement sites
